According to PMC6973051, “Proline‐Rich Peptides with Improved Antimicrobial Activity against E. coli, K. pneumoniae, and A. baumannii” (Chemmedchem, 2019):
Ends that are not written are not given here.

What was measured:
E. coli BW25113 [1] = assay type: cell-based, Escherichia coli; details: BW25113, 18 h
Source text: (§1) The following bacterial strains were used: Escherichia coli BW25113, E. coli BW25113ΔsbmA (JW0368‐1, KEIO collection21); Acinetobacter baumannii ATCC 19606, Klebsiella pneumoniae ATCC 700603, Pseudomonas aeruginosa ATCC 27853 and Staphylococcus aureus ATCC 25923. The pathogenic E. coli EURL‐VTEC A07, E. coli EURL‐VTEC C07, E. coli SSI‐NN14, E. coli EA22, E. coli SSI‐OO15 and E. coli C679‐12 strains were generously provided by the European Union Reference Laboratory for E. coli, Department of Food Safety, Nutrition and Veterinary Public Health, Istituto Superiore di Sanità, Rome, Italy. All the strains were grown overnight in Müller‐Hinton broth (MHB, Difco) at 37 °C, with shaking (140 rpm). The day after, the overnight bacterial cultures were diluted approx. 1 : 40 in fresh MHB and incubated at 37 °C with shaking (140 rpm) until an OD600nm of ≈0.3 was reached. E. coli BW25113ΔsbmA was grown in the presence of 50 μg mL^−1 kanamycin.
(§2) Peptides were diluted in 100 μL of MHB to the concentration of 128 μM, dispensed in the first wells of a 96‐wells microtiter plate (round‐bottom) and serially two‐fold diluted with MHB into successive wells in a final volume of 50 μl. Subsequently, 50 μL of a bacterial suspension (5×10^5 CFU mL^−1) were added to each well, halving the final concentration of bacteria and peptides. Bacteria were added to MHB only as bacterial growth‐control, whereas 100 μl of MHB were used to check the medium sterility. The plate was incubated overnight at 37 °C (≈18 hours) and sealed with parafilm to minimise evaporation. The MIC was calculated as the first clear well without bacterial growth. If barely detectable growth was present, the OD600nm of the plate was measured by a multiplate reader Tecan (software Sunrise). The MIC was then calculated as the well whose OD620 was≤1 % of that of the untreated growth control.

[2] = tested on: K. pneumoniae ATCC 700603; assay type: cell-based, Klebsiella pneumoniae
Source text: (§3) Table 3 MIC and MBC of the native Bac5(1–17) (wt) and selected Bac5‐derivatives on pathogenic and reference bacterial strains. | column: MBC (μM) / wt; MBC (μM) / 258; MBC (μM) / 272; MBC (μM) / 278; MBC (μM) / 281; MBC (μM) / 291

P. aeruginosa ATCC 27853 [3] = assay type: cell-based, Pseudomonas aeruginosa
Source text: as §3

S. aureus ATCC 25923 [4] = assay type: cell-based, Staphylococcus aureus
Source text: as §3

S. aureus ATCC 25923 [5] = assay type: cell-based, Staphylococcus aureus; details: ATCC 25923, 18 h
Source text: as §1, §2

A. baumannii ATCC 19606 = assay type: cell-based, Acinetobacter baumannii
Source text: as §3

[6] = tested on: E. coli EURL‐VTEC C07 STEC:O157; assay type: cell-based, Escherichia coli; details: EURL‐VTEC C07 STEC:O157, 18 h
Source text: as §1, §2

E. coli SSI‐OO15 EIEC = assay type: cell-based, Escherichia coli; details: 18 h
Source text: as §1, §2

[7] = tested on: E. coli EURL‐VTEC A07 EPEC:O111; assay type: cell-based, Escherichia coli; details: EURL‐VTEC A07 EPEC:O111, 18 h
Source text: as §1, §2

E. coli EA22 ETEC = assay type: cell-based, Escherichia coli; details: 18 h
Source text: as §1, §2

[8] = tested on: E. coli C679‐12 EAEC:0104; assay type: cell-based, Escherichia coli; details: C679‐12 EAEC:0104, 18 h
Source text: as §1, §2

E. coli BW25113 [9] = assay type: cell-based, Escherichia coli
Source text: as §3

P. aeruginosa ATCC 27853 [10] = assay type: cell-based, Pseudomonas aeruginosa; details: ATCC 27853, 18 h
Source text: as §1, §2

Row | Substance | MIC (E. coli BW25113 [1]) [µM] | further results
1 | RFRPPIRRPPIRPPPYPG-NH2 (C-terminus assumed) [F15P] | >64 | –
2 | RFRPPIRRPPIRPPRYPG-NH2 (C-terminus assumed) [F15R] | 32 | –
3 | RFRPPIRRPPIRPPSYPG-NH2 (C-terminus assumed) [F15S] | 64 | –
4 | RFRPPIRRPPIRPRFYPG-NH2 [P14R] | 32 | –
5 | RFRPPIRRPPIRPSFYPG-NH2 [P14S] | 64 | –
6 | RFRPPIRRPPIRPWFYPG-NH2 [P14W] | 16 | –
7 | RFRPPIRRPPIRRPFYPG-NH2 [P13R] | 64 | –
8 | RFRPPIRRPPIRSPFYPG-NH2 [P13S] | 64 | –
9 | RFRPPIRRPPIRWPFYPG-NH2 [P13W] | 16 | –
10 | RFRPPIRRPPISPPFYPG-NH2 [R12S] | >64 | –
11 | RFRPPIRRPPIWPPFYPG-NH2 [R12W] | >64 | –
12 | RFRPPIRRPPPRPPFYPG-NH2 (C-terminus assumed) [I11P] | >64 | –
13 | RFRPPIRRPPRRPPFYPG-NH2 (C-terminus assumed) [I11R] | >64 | –
14 | RFRPPIRRPPSRPPFYPG-NH2 (C-terminus assumed) [I11S] | >64 | –
15 | RFRPPIRRPPWRPPFYPG-NH2 (C-terminus assumed) [I11W] | 32 | –
16 | RFRPPIRRPRIRPPFYPG-NH2 [P10R] | >64 | –
17 | RFRPPIRRPSIRPPFYPG-NH2 [P10S] | 64 | –
18 | RFRPPIRRPWIRPPFYPG-NH2 [P10W] | 32 | –
19 | RFRPPIRRRPIRPPFYPG-NH2 (C-terminus assumed) [P9R] | 8 | –
20 | RFRPPIRRSPIRPPFYPG-NH2 (C-terminus assumed) [P9S] | 64 | –
21 | RFRPPIRRWPIRPPFYPG-NH2 (C-terminus assumed) [P9W] | 16 | –
22 | RFRPPIRSPPIRPPFYPG-NH2 [R8S] | >64 | –
23 | RFRPPIRWPPIRPPFYPG-NH2 [R8W] | 32 | –
24 | RFRPPISRPPIRPPFYPG-NH2 [R7S] | >64 | –
25 | RFRPPIWRPPIRPPFYPG-NH2 [R7W] | 64 | –

Row | Substance | MIC (E. coli BW25113 [1]) [µM] | further results
26 | RFRPPPRRPPIRPPFYPG-NH2 (C-terminus assumed) [I6P] | >64 | –
27 | RFRPPRRRPPIRPPFYPG-NH2 (C-terminus assumed) [I6R] | 16 | –
28 | RFRPPSRRPPIRPPFYPG-NH2 (C-terminus assumed) [I6S] | 64 | –
29 | RFRPPWRRPPIRPPFYPG-NH2 (C-terminus assumed) [I6W] | 8 | –
30 | RFRPRIRRPPIRPPFYPG-NH2 (C-terminus assumed) [P5R] | 16 | –
31 | RFRPSIRRPPIRPPFYPG-NH2 (C-terminus assumed) [P5S] | 64 | –
32 | RFRPWIRRPPIRPPFYPG-NH2 (C-terminus assumed) [P5W] | 16 | –
33 | RFRRPIRRPPIRPPFYPG-NH2 (C-terminus assumed) [P4R] | 4 | –
34 | RFRSPIRRPPIRPPFYPG-NH2 (C-terminus assumed) [P4S] | 16 | –
35 | RFRWPIRRPPIRPPFYR [compound 272] | 4 | MBC [2]: >64 µM; MBC (P. aeruginosa ATCC 27853 [3]): 64 µM; MBC (S. aureus ATCC 25923 [4]): >64 µM; MIC (S. aureus ATCC 25923 [5]): >64 µM; MBC (A. baumannii ATCC 19606): 16 µM; MIC [6]: 8 µM; MIC (E. coli SSI‐OO15 EIEC): 1 µM; MIC [7]: 2 µM; MIC (E. coli EA22 ETEC): 1 µM; MIC [8]: 2 µM; MBC (E. coli BW25113 [9]): 8 µM
36 | RFRWPIRRPPIRPPFYRG-NH2 [272 (SPOT form)] | 4 | –
37 | RFSPPIRRPPIRPPFYPG-NH2 [R3S] | >64 | –
38 | RFWPPIRRPPIRPPFYPG-NH2 [R3W] | 32 | –
39 | RGRPPIRRPPIRPPFYPG-NH2 (C-terminus assumed) [F2G] | 16 | –
40 | RPRPPIRRPPIRPPFYPG-NH2 (C-terminus assumed) [F2P] | 64 | –
41 | RRRPPIRRPPIRPPFYPG-NH2 (C-terminus assumed) [F2R] | 16 | –
42 | RSRPPIRRPPIRPPFYPG-NH2 (C-terminus assumed) [F2S] | 64 | –
43 | RWRRPIRRRPIRPPFWR [compound 291] | 2 | MBC [2]: >64 µM; MBC (P. aeruginosa ATCC 27853 [3]): >64 µM; MBC (S. aureus ATCC 25923 [4]): 64 µM; MBC (A. baumannii ATCC 19606): 16 µM; MIC [6]: 2 µM; MIC (E. coli SSI‐OO15 EIEC): 1 µM; MIC [7]: 2 µM; MIC (E. coli EA22 ETEC): 1 µM; MIC [8]: 1 µM; MBC (E. coli BW25113 [9]): 8 µM
44 | RWRRPIRRRPIRPPFWRG-NH2 [291 (SPOT form)] | 4 | –
45 | RWRRPIRRRPIRPPFYW [compound 281] | 2 | MBC [2]: >64 µM; MBC (P. aeruginosa ATCC 27853 [3]): 48 µM; MBC (S. aureus ATCC 25923 [4]): 32 µM; MBC (A. baumannii ATCC 19606): 8 µM; MIC [6]: 2 µM; MIC (E. coli SSI‐OO15 EIEC): 1 µM; MIC [7]: 2 µM; MIC (E. coli EA22 ETEC): 2 µM; MIC [8]: 2 µM; MBC (E. coli BW25113 [9]): 2 µM
46 | RWRRPIRRRPIRPPFYWG-NH2 [281 (SPOT form)] | 4 | –
47 | RWRWPIRRPPIRPPFYR [compound 278] | 2 | MBC [2]: 48 µM; MIC (P. aeruginosa ATCC 27853 [10]): 16 µM; MBC (P. aeruginosa ATCC 27853 [3]): 64 µM; MBC (S. aureus ATCC 25923 [4]): >64 µM; MIC (S. aureus ATCC 25923 [5]): >64 µM; MBC (A. baumannii ATCC 19606): 8 µM; MIC [6]: 8 µM; MIC (E. coli SSI‐OO15 EIEC): 1 µM; MIC [7]: 1 µM; MIC (E. coli EA22 ETEC): 1 µM; MIC [8]: 2 µM; MBC (E. coli BW25113 [9]): 4 µM
48 | RWRWPIRRPPIRPPFYRG-NH2 [278 (SPOT form)] | 4 | –
49 | SFRPPIRRPPIRPPFYPG-NH2 [R1S] | >64 | –
50 | WFRPPIRRPPIRPPFYPG-NH2 [R1W] | 32 | –
